Here are results for 20 compounds from patent publication US6914066B2, “1,2-annelated quinoline derivatives” (Janssen Pharmaceutica N.V., priority 1998, dated 2005).

Structures can show the parent of a compound that is named as a salt. Some results are limits rather than exact numbers.

Take `Cn1cncc1C(O)(c1ccc(Cl)cc1)c1ccc2c(c1)c(-c1cccc(Cl)c1)c(C(=O)O)c1nnnn12` (centres unmarked) (as salt: hydrochloride) [Comp 53]: the melting point was above 260 °C.

The compound `Cn1cncc1C(O)(c1ccc(Cl)cc1)c1ccc2c(c1)c(-c1cccc(Cl)c1)c(CO)c1nnnn12` (centres unmarked) (as salt: hydrochloride) [Comp 82] had a melting point above 280 °C. Turning to `Cn1cncc1C(OCCO)(c1ccc(Cl)cc1)c1ccc2c(c1)c(-c1cccc(Cl)c1)cc1nnnn12` (centres unmarked) (hydrate or solvate) [Comp 41], the melting point is 150 °C. To `Fc1ccc(C(c2ccc3c(c2)c(-c2ccccc2)cc2nccn23)n2ccnc2)cc1` (racemic) (hydrate or solvate) [Comp 3, (±)-7-[(4fluorophenyl)(1H-imidazol-1-yl)methyl]-5-phenylimidazo[1,2-a]quinoline ethanedioate(2:3).hemihydrate] belongs 204.3 °C. `O=c1[nH]nc2cc(-c3ccccc3)c3cc(C(c4ccc(Cl)cc4)n4ccnc4)ccc3n12` (racemic) (hydrate or solvate) [Comp 7, (±)-7-[(4-chlorophenyl)-1H-imidazol-1-ylmethyl]-5-phenyl[1,2,4]triazolo[4,3-a]quinolin-1(2H)-one ethanedioate(1:1).hemihydrate] came in with a melting point of 198.3 °C. Compound `Cn1cncc1C(O)(c1ccc(Cl)cc1)c1ccc2c(c1)c(-c1cccc(Cl)c1)cc1cnnn12` (racemic) [Comp 26, (±)-5-(3-chlorophenyl)-α-(4-chlorophenyl)-α-(1-methyl-1H-imidazol-5-yl)-[1,2,3]triazolo[1,5-a]quinoline-7-methanol] displayed a melting point of 222 °C.

As for `Cn1cncc1C(O)(c1ccc(Cl)cc1)c1ccc2c(c1)c(-c1cccc(Cl)c1)nc1nnnn12` (racemic) [Comp 29, (±)-5-(3-chlorophenyl)-α-(4-chlorophenyl)-α-(1-methyl-1H-imidazol-5-yl)tetrazolo[1,5-a]quinazoline-7-methanol], the melting point worked out at 139 °C. To `Cn1cncc1C(O)(c1ccc(Cl)cc1)c1ccc2c(c1)C(c1cccc(Cl)c1)Nc1nnnn1-2` (racemic) [Comp 30, (±)5-(3-chlorophenyl)-α-(4-chlorophenyl)4,5-dihydro-α-(1-methyl-1H-imidazol-5-yl)tetrazolo[1,5-a]quinazoline-7-methanol] belongs 212 °C.

Compound `Cn1cncc1C(N)(c1ccc(Cl)cc1)c1ccc2c(c1)c(-c1cccc(Cl)c1)nc1nnnn12` (racemic) [Comp 32, (±)-5-(3-chlorophenyl)-α-(4-chlorophenyl)-α-(1-methyl-1H-imidazol-5-yl)tetrazolo[1,5-a]quinazoline-7-methanamine] returned a melting point of 159 °C. The figure for `CN1c2nnnn2-c2ccc(C(O)(c3ccc(Cl)cc3)c3cncn3C)cc2C1c1cccc(Cl)c1` (racemic) [Comp 33, (±)-5-(3-chlorophenyl)-α-(4-chlorophenyl)-4,5-dihydro-4methyl-α-(1-methyl-1H-imidazol-5-yl)tetrazolo[1,5-a]quinazoline-7-methanol] is 235 °C; for `Cn1cncc1C(N)(c1ccc(Cl)cc1)c1ccc2c(c1)c(-c1cccc(Cl)c1)cc1nnnn12` (centres unmarked) [Comp 27] it is 172 °C. `Cn1cncc1C(N)(c1ccc(Cl)cc1)c1ccc2c(c1)c(-c1cccc(Cl)c1)cc1nnnn12` (centres unmarked) [Comp 28] showed a melting point of 180 °C. To `CNC(c1ccc(Cl)cc1)(c1ccc2c(c1)c(-c1cccc(Cl)c1)cc1nnnn12)c1cncn1C` (centres unmarked) [Comp 48] belongs 167 °C. As to `CNc1ncc(C(c2ccc(Cl)cc2)c2ccc3c(c2)c(-c2cccc(Cl)c2)cc2nnnn23)n1C` (centres unmarked) [Comp 49], the melting point stood at 206 °C. The figure for `Cn1cncc1C(N)(c1ccc(Cl)cc1)c1ccc2c(c1)c(-c1cccc(Cl)c1)c(C(N)=O)c1nnnn12` (centres unmarked) [Comp 77] is above 250 °C. The figure for `Cn1cncc1C(O)(c1ccc(Cl)cc1)c1ccc2c(c1)c(-c1cccc(Cl)c1)c(C(N)=O)c1nnnn12` (centres unmarked) [Comp 80] is above 250 °C. In turn, `Cn1cncc1C(c1ccc(Cl)cc1)c1ccc2c(c1)c(-c1cccc(Cl)c1)cc1nnnn12` (centres unmarked) [Comp 94] had a melting point of 166 °C.

Take `CCOC(=O)c1cn2c(cc(-c3cccc(Cl)c3)c3cc(C(O)(c4ccc(Cl)cc4)c4cncn4C)ccc32)n1` (centres unmarked) [Comp 95]: the melting point was 143 °C.

Take `Cn1cncc1C(NO)(c1ccc(Cl)cc1)c1ccc2c(c1)c(-c1cccc(Cl)c1)cc1cnnn12` (centres unmarked) [Comp 98]: the melting point was 191 °C.

Take `CNCC(=O)NC(c1ccc(Cl)cc1)(c1ccc2c(c1)c(-c1cccc(Cl)c1)cc1nnnn12)c1cncn1C` (centres unmarked) [Comp 121]: the melting point stood at 224 °C.

The melting point is the temperature of the solid-liquid transition.
